Measured values taken from patent US9944602B2, “Piperidinone herbicides” (E. I. DU PONT DE NEMOURS AND COMPANY, priority 2014, dated 2018).

Tests used:
[1] = tested on: galium (catchweed bedstraw, Galium aparine); test: Test A postemergence galium; assay type: in vivo; settings: Galium, post-emergence, 240 h, 0 to 100 scale, 0 is no effect, 100 is complete control, read-out: Plant response rating, Galium; for pest or weed control at 125 g/ha: 125 g ai/ha; for pest or weed control at 500 g/ha: 500 g ai/ha
Procedure, shortened: (§1)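 Plants were grown in a blend of loam soil and sand. For preemergence testing the soil was sprayed directly after seeding, while postemergence testing used seedlings 2–10 cm high at one to two leaves; all treatments were rated visually for injury (0–100) after ~10 d.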

[2] = tested on: kochia (Kochia scoparia); test: Test A postemergence kochia; assay type: in vivo; settings: Bassia scoparia, post-emergence, 240 h, 0 to 100 scale, 0 is no effect, 100 is complete control, read-out: Plant response rating, Kochia; for pest or weed control at 125 g/ha: 125 g ai/ha; for pest or weed control at 500 g/ha: 500 g ai/ha
Procedure, shortened: as §1

[3] = tested on: blackgrass (Alopecurus myosuroides); test: Test A postemergence blackgrass; assay type: in vivo; settings: Alopecurus myosuroides, post-emergence, 240 h, 0 to 100 scale, 0 is no effect, 100 is complete control, read-out: Plant response rating, Blackgrass; for pest or weed control at 125 g/ha: 125 g ai/ha; for pest or weed control at 500 g/ha: 500 g ai/ha
Procedure, shortened: as §1

[4] = tested on: barnyardgrass (Echinochloa crus-galli); test: Test A preemergence barnyardgrass; assay type: in vivo; settings: Echinochloa crus-galli, pre-emergence, 240 h, 0 to 100 scale, 0 no effect, 100 complete control, read-out: Barnyardgrass plant response rating; for pest or weed control at 125 g/ha: 125 g ai/ha; for pest or weed control at 500 g/ha: 500 g ai/ha
Procedure, shortened: as §1

[5] = tested on: pigweed (Amaranthus retroflexus); test: Test A postemergence pigweed; assay type: in vivo; settings: Amaranthus retroflexus, post-emergence, 240 h, 0 to 100 scale, 0 is no effect, 100 is complete control, read-out: Plant response rating, Pigweed; for pest or weed control at 125 g/ha: 125 g ai/ha; for pest or weed control at 500 g/ha: 500 g ai/ha
Procedure, shortened: as §1

[6] = tested on: sedge, umbrella (small-flower umbrella sedge, Cyperus difformis); test: Test B flooded paddy test sedge, umbrella; assay type: in vivo; settings: Cyperus difformis, Table B, Flood, 250 g ai/ha, scale 0 to 100, read-out: Plant response rating
Procedure, shortened: (§2)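 Plants grown to the 2-leaf stage; pots flooded to 3 cm above soil at treatment, compound applied directly into paddy water, depth held throughout. Greenhouse 13 to 15 d, then visual evaluation against untreated controls.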

[7] = tested on: ragweed (common ragweed, Ambrosia elatior); test: Test A postemergence ragweed; assay type: in vivo; settings: Ambrosia artemisiifolia, post-emergence, 240 h, 0 to 100 scale, 0 is no effect, 100 is complete control, read-out: Plant response rating, Ragweed; for pest or weed control at 125 g/ha: 125 g ai/ha; for pest or weed control at 500 g/ha: 500 g ai/ha
Procedure, shortened: as §1

[8] = tested on: ryegrass, Italian (Italian ryegrass, Lolium multiflorum); test: Test A preemergence ryegrass, Italian; assay type: in vivo; settings: Lolium multiflorum, pre-emergence, 240 h, 0 to 100 scale, 0 no effect, 100 complete control, read-out: Ryegrass, Italian plant response rating; for pest or weed control at 125 g/ha: 125 g ai/ha; for pest or weed control at 500 g/ha: 500 g ai/ha
Procedure, shortened: as §1

[9] = tested on: ryegrass, Italian (Italian ryegrass, Lolium multiflorum); test: Test A postemergence ryegrass, Italian; assay type: in vivo; settings: Lolium multiflorum, post-emergence, 240 h, 0 to 100 scale, 0 is no effect, 100 is complete control, read-out: Plant response rating, Ryegrass, Italian; for pest or weed control at 125 g/ha: 125 g ai/ha; for pest or weed control at 500 g/ha: 500 g ai/ha
Procedure, shortened: as §1

[10] = tested on: foxtail, giant (giant foxtail, Setaria faberii); test: Test A postemergence foxtail, giant; assay type: in vivo; settings: Setaria faberi, post-emergence, 240 h, 0 to 100 scale, 0 is no effect, 100 is complete control, read-out: Plant response rating, Foxtail, Giant; for pest or weed control at 125 g/ha: 125 g ai/ha; for pest or weed control at 500 g/ha: 500 g ai/ha
Procedure, shortened: as §1

[11] = tested on: corn (Zea mays); test: Test A postemergence corn; assay type: in vivo; settings: Zea mays, post-emergence, 240 h, 0 to 100 scale, 0 is no effect, 100 is complete control; for Corn plant response rating (crop injury, 0 = no effect, 100 = complete kill) at 125 g/ha: 125 g ai/ha; for Corn plant response rating (crop injury, 0 = no effect, 100 = complete kill) at 500 g/ha: 500 g ai/ha
Procedure, shortened: as §1

[12] = tested on: ragweed (common ragweed, Ambrosia elatior); test: Test A preemergence ragweed; assay type: in vivo; settings: Ambrosia artemisiifolia, pre-emergence, 240 h, 0 to 100 scale, 0 no effect, 100 complete control, read-out: Ragweed plant response rating; for pest or weed control at 125 g/ha: 125 g ai/ha; for pest or weed control at 500 g/ha: 500 g ai/ha
Procedure, shortened: as §1

[13] = tested on: kochia (Kochia scoparia); test: Test A preemergence kochia; assay type: in vivo; settings: Bassia scoparia, pre-emergence, 240 h, 0 to 100 scale, 0 no effect, 100 complete control, read-out: Kochia plant response rating; for pest or weed control at 125 g/ha: 125 g ai/ha; for pest or weed control at 500 g/ha: 500 g ai/ha
Procedure, shortened: as §1

[14] = tested on: wheat (Triticum aestivum); test: Test A postemergence wheat; assay type: in vivo; settings: Triticum aestivum, post-emergence, 240 h, 0 to 100 scale, 0 is no effect, 100 is complete control, read-out: Plant response rating, Wheat; for plant injury at 125 g/ha: 125 g ai/ha; for plant injury at 500 g/ha: 500 g ai/ha
Procedure, shortened: as §1

[15] = tested on: barnyardgrass (Echinochloa crus-galli); test: Test B flooded paddy test barnyardgrass; assay type: in vivo; settings: Echinochloa crus-galli, Table B, Flood, 250 g ai/ha, scale 0 to 100, read-out: Plant response rating
Procedure, shortened: as §2

[16] = tested on: ducksalad (Heteranthera limosa); test: Test B flooded paddy test ducksalad; assay type: in vivo; settings: Heteranthera limosa, Table B, Flood, 250 g ai/ha, scale 0 to 100, read-out: Plant response rating
Procedure, shortened: as §2

[17] = tested on: rice (Oryza sativa); test: Test B flooded paddy test rice; assay type: in vivo; settings: Oryza sativa, Table B, Flood, 250 g ai/ha, scale 0 to 100, read-out: Plant response rating
Procedure, shortened: as §2

[18] = tested on: foxtail, giant (giant foxtail, Setaria faberii); test: Test A preemergence foxtail, giant; assay type: in vivo; settings: Setaria faberi, pre-emergence, 240 h, 0 to 100 scale, 0 no effect, 100 complete control, read-out: Foxtail, Giant plant response rating; for pest or weed control at 125 g/ha: 125 g ai/ha; for pest or weed control at 500 g/ha: 500 g ai/ha
Procedure, shortened: as §1

[19] = tested on: pigweed (Amaranthus retroflexus); test: Test A preemergence pigweed; assay type: in vivo; settings: Amaranthus retroflexus, pre-emergence, 240 h, 0 to 100 scale, 0 no effect, 100 complete control, read-out: Pigweed plant response rating; for pest or weed control at 125 g/ha: 125 g ai/ha; for pest or weed control at 500 g/ha: 500 g ai/ha
Procedure, shortened: as §1

[20] = tested on: barnyardgrass (Echinochloa crus-galli); test: Test A postemergence barnyardgrass; assay type: in vivo; settings: Echinochloa crus-galli, post-emergence, 240 h, 0 to 100 scale, 0 is no effect, 100 is complete control, read-out: Plant response rating, Barnyardgrass; for pest or weed control at 125 g/ha: 125 g ai/ha; for pest or weed control at 500 g/ha: 500 g ai/ha
Procedure, shortened: as §1

Compound	pest or weed control at 125 g/ha [1] [%]	pest or weed control at 500 g/ha [1] [%]	pest or weed control at 125 g/ha [2] [%]	pest or weed control at 500 g/ha [2] [%]	pest or weed control at 125 g/ha [3] [%]	pest or weed control at 500 g/ha [3] [%]	pest or weed control at 125 g/ha [4] [%]	pest or weed control at 500 g/ha [4] [%]	pest or weed control at 125 g/ha [5] [%]	pest or weed control at 500 g/ha [5] [%]	pest or weed control at 250 g/ha [6] [%]	pest or weed control at 125 g/ha [7] [%]	pest or weed control at 500 g/ha [7] [%]	pest or weed control at 125 g/ha [8] [%]	pest or weed control at 500 g/ha [8] [%]	pest or weed control at 125 g/ha [9] [%]	pest or weed control at 500 g/ha [9] [%]	melting point [°C]	pest or weed control at 125 g/ha [10] [%]	pest or weed control at 500 g/ha [10] [%]	other results
O=C1NCCC(c2cccc(Cl)c2)C1C(=O)Nc1cccc(F)c1F (centres unmarked) [Compound 36, 4-(3-chlorophenyl)-N-(2,3-difluorophenyl)-2-oxo-3-piperidinecarboxamide]	0	30	0	0	0	60	90	90	0	0	0	0	0	0	30	0	20	100 to 102	90	90	Corn plant response rating (crop injury, 0 = no effect, 100 = complete kill) at 125 g/ha [11]: 0%; Corn plant response rating (crop injury, 0 = no effect, 100 = complete kill) at 500 g/ha [11]: 0%; pest or weed control at 125 g/ha [12]: 0%; pest or weed control at 500 g/ha [12]: 0%; pest or weed control at 125 g/ha [13]: 0%; pest or weed control at 500 g/ha [13]: 0%; plant injury at 125 g/ha [14]: 0%; plant injury at 500 g/ha [14]: 0%; pest or weed control at 250 g/ha [15]: 60%; pest or weed control at 250 g/ha [16]: 90%; plant injury at 250 g/ha [17]: 0%; pest or weed control at 125 g/ha [18]: 90%; pest or weed control at 500 g/ha [18]: 90%; pest or weed control at 125 g/ha [19]: 0%; pest or weed control at 500 g/ha [19]: 0%; pest or weed control at 125 g/ha [20]: 80%; pest or weed control at 500 g/ha [20]: 90%
O=C1NCCC(c2cccc(C(F)F)c2)C1C(=O)Nc1cccc(F)c1F (centres unmarked) [Compound 49, 4-[3-(difluoromethyl)phenyl]-N-(2,3-difluorophenyl)-2-oxo-3-piperidinecarboxamide]	0	0	0	0	0	50	80	90	0	0	0	0	0	0	60	0	0	134 to 137	80	80	Corn plant response rating (crop injury, 0 = no effect, 100 = complete kill) at 125 g/ha [11]: 0%; Corn plant response rating (crop injury, 0 = no effect, 100 = complete kill) at 500 g/ha [11]: 50%; pest or weed control at 125 g/ha [12]: 0%; pest or weed control at 500 g/ha [12]: 0%; pest or weed control at 125 g/ha [13]: 0%; pest or weed control at 500 g/ha [13]: 0%; plant injury at 125 g/ha [14]: 0%; plant injury at 500 g/ha [14]: 30%; pest or weed control at 250 g/ha [15]: 70%; pest or weed control at 250 g/ha [16]: 100%; plant injury at 250 g/ha [17]: 0%; pest or weed control at 125 g/ha [18]: 90%; pest or weed control at 500 g/ha [18]: 90%; pest or weed control at 125 g/ha [19]: 0%; pest or weed control at 500 g/ha [19]: 0%; pest or weed control at 125 g/ha [20]: 80%; pest or weed control at 500 g/ha [20]: 90%
